No end group written: not given here.
How the values were obtained:
rat prostate = assay: Intraprostatic infusion of peptide in rats, histology and prostate volume after 7 days; assay type: in vivo, Sprague-Dawley rats; parameters: key to Histological Changes of Cell Death at 7 Days: −: Absent; +: Present, Minimal; ++: Present, Moderate; +++: Present, Moderate and Diffuse; ++++: Present, Diffuse and Extensive; conditions: for histological effect on prostate at sites of injection: rat prostate, 7 days; for Histological Changes of Cell Death at 7 Days / reduction in prostate volume compared to controls: rat; for Histological Changes of Cell Death at 7 Days: 7 days after intraprostatic injection; for reduction in prostate volume compared to controls: intraprostatic, 300 μl of 1 mg/mL in PBS pH 7.4, sacrificed after 7 days, average
Description: Seven normal male 300 gram weight Sprague-Dawley rats were given general anesthesia and given peptide NYMAP1385 by intraprostatic infusion. The injections consisted of 300 μl of peptide NYMAP1385 1 mg/mL in PBS pH 7.4. […] Rats were painlessly sacrificed after 7 days. Prostate glands were dissected, fixed in 10% buffered formalin for 24 hours, embedded in paraffin, sectioned, and stained with H & E. For each animal the entire prostate gland was embedded and sectioned. All stained sections were examined histologically. For each animal the entire prostate gland was embedded and sectioned. All stained sections were examined histologically and measured. For each prostate at least 2 histological sections were examined, and for each histological section two cross-sectional diameters (D) at 90° from each other were measured (total of ≧4 measurements per prostate). The mean diameter from these measurements for each prostate was used to estimate volume according to V=4/3*π*(D/2)^3
Eight normal male 300 gram Sprague-Dawley rats were injected in the prostate as in the above Example 2, except they were injected with peptide NYMAP13134. Rats were painlessly sacrificed after 7 days and their prostate glands were examined as in Example 2. For each animal the entire prostate gland was embedded and sectioned. All stained sections were examined histologically and measured. For each prostate at least 2 histological sections were examined, and for each histological section two cross-sectional diameters (D) at 90° from each other were measured (total of ≧4 measurements per prostate). The mean diameter from these measurements for each prostate was used to estimate volume according to V=4/3*π*(D/2)^3
(§1) Histological changes were assessed on the following scale: −Absent • +Present, Minimal • ++Present, Moderate • +++Present, Moderate and Diffuse • ++++Present, Diffuse and Extensive

[1] = test system: tissue at sites of injection (liver, prostate, extremity skeletal muscle); assay: Injection of peptide into liver, prostate and extremity skeletal muscle of rats, histopathology and prostate volume at 72 hours; assay type: in vivo, Sprague-Dawley male rats; parameters: key to Histological Changes of Cell Death at 72 Hours: −: Absent; +: Present, Minimal; ++: Present, Moderate; +++: Present, Moderate and Diffuse; ++++: Present, Diffuse and Extensive; conditions: rat; for reduction in prostate volume compared to controls: 100 to 400 μL of 1 mg/mL in saline, sacrificed at 72 hours, average; for Histological Changes of Cell Death at 72 Hours: 72 hours after injection; for histopathological effect on tissue at sites of injection: liver, prostate, muscle, 72 hours
Description: After open laparotomy under general anesthesia, 8 normal 3 month old Sprague-Dawley male rats were injected in liver and in prostate, and in extremity skeletal muscle, with peptide NYMAP1385 in saline in quantities of 100 to 400 μL at a concentration of 1 mg/mL delivered from plastic syringes through stainless steel 26 gauge needles.
The individual foci of infiltration were excised, fixed in 10% formalin, embedded in paraffin, and stained and examined by standard histopathological methods. For each animal the entire prostate gland was embedded and sectioned. All stained sections were examined histologically and measured. For each prostate at least 4 histological sections were examined, and for each histological section two cross-sectional diameters (D) at 90° from each other were measured (total of ≧4 measurements per prostate). The mean diameter from these measurements for each prostate was used to estimate volume according to V=4/3*π(D/2)^3 […]
as §1

Sequence | histological effect on prostate at sites of injection (rat prostate) | Histological Changes of Cell Death at 7 Days (rat prostate) | reduction in prostate volume compared to controls (rat prostate) | reduction in prostate volume compared to controls [1] | Histological Changes of Cell Death at 72 Hours [1] | histopathological effect on tissue at sites of injection [1]
FHDLKKHCIK [NYMAP13134] | significant cell loss and atrophy in the prostate | ++++ | 75.2% | 72.5% | +++ | cell death and necrosis of tissue at the injection sites
IDLLQGRTRNRC [NYMAP1385] | necrosis of tissue at the injection sites with loss of glandular epithelium, flattening and atrophy | ++ | 44.8% | 57.8% | ++++ | variable amounts of apoptosis and necrosis of tissue at the injection sites
